# Source: ChEMBL document CHEMBL3421552, “Penicitols A-C and penixanacid A from the mangrove-derived Penicillium chrysogenum HDN11-24” (J Nat Prod, 2015)
# pIC50: −log10 of the molar value.
# Key:
# [1] = Cytotoxic activity against human Bel7402 cells by MTT method; settings: Bel-7402
# [2] = test system: HEK293; assay: Cytotoxic activity against human HEK293 cells by SRB method; assay type: cell-based
# [3] = test system: HeLa; assay: Cytotoxic activity against human HeLa cells by MTT method; assay type: functional, cell-based
# [4] = Cytotoxic activity against human HCT116 cells by SRB method; assay type: functional, cell-based; settings: HCT-116
# [5] = test system: A549; assay: Cytotoxic activity against human A549 cells by SRB method
Structure (SMILES),pIC50 [1],pIC50 [2],pIC50 [3],pIC50 [4],pIC50 [5]
CO[C@]12CCCC[C@H]1[C@H]1O[C@H](C)[C@@H](C)c3c(O)c(O)cc(c31)O2,4.98,5.17,5.34,5.25,5.12
Cc1c(O)c(O)c(Oc2cc(O)c(C)c3c2C(=O)O[C@H](C)[C@H]3C)c2c1[C@H](C)[C@@H](C)O2,5.15,5.19,5.47,5.46,5.02
CO[C@H]1CCc2oc(=O)c3c(O)cc(C)cc3c21,4.39,4.50,4.90,4.65,4.97
COC(=O)c1ccc2c(=O)c3cc(O)cc(C(=O)O)c3oc2c1O,4.51,4.55,5.00,4.72,4.77
CO[C@@]1(C)C[C@H]2O[C@H](C)[C@@H](C)c3c(C)c(O)cc(c32)O1,< 4.30,4.37,4.45,< 4.30,< 4.30
CO[C@]1(C)C[C@H]2O[C@H](C)[C@@H](C)c3c(C)c(O)cc(c32)O1,4.33,4.49,4.35,< 4.30,< 4.30
COc1cccc2c1C(=O)c1c(O)c3c(c(O)c1C2=O)C[C@@](O)(C(=O)CO)C[C@@H]3O[C@H]1C[C@H](N)[C@H](O)[C@H](C)O1 [DOXORUBICIN],–,7.40,6.30,6.70,–
